Our source for the Activity values is ChEMBL document CHEMBL5537170, “Design, Synthesis, and Anti-Osteoporotic Characterization of Arginine N-Glycosylated Teriparatide Analogs via the Silver-catalyzed Solid-Phase Glycosylation Strategy” (J Med Chem, 2024).

*1 amine or outer side, *2 acyl side, *3 side chain or, on linkers, in order; H or OH if unused. Where a SMILES comes first, the peptide text is derived from it. [ ]: non-standard residue; d: D form. X3 = CC(=O)N[C@@H]1[C@@H](O)[C@H](O)[C@@H](CO)O[C@H]1NC(=N)NCCC[C@H](N[*:1])C(=O)[*:2]; X6 = C[C@@H]1O[C@@H](NC(=N)NCCC[C@H](N[*:1])C(=O)[*:2])[C@H](O)[C@H](O)[C@H]1O; X5 = N=C(NCCC[C@H](N[*:1])C(=O)[*:2])N[C@@H]1OC[C@@H](O)[C@H](O)[C@H]1O

A short description of the data set: Cytotoxicity against C57BL/6 mouse Pre-Osteoblast cells assessed as cell death upto 5 uM incubated for 4 days by CCK-8 assay. It counts as toxicity, cell-based. Particulars: 96 h, time 4 day.
Take `CC[C@H](C)[C@H](NC(=O)[C@H](CCC(=O)O)NC(=O)[C@H](CO)NC(=O)[C@@H](NC(=O)[C@H](CO)NC(C)=O)C(C)C)C(=O)N[C@@H](CCC(N)=O)C(=O)N[C@@H](CC(C)C)C(=O)N[C@@H](CCSC)C(=O)N[C@@H](Cc1cnc[nH]1)C(=O)N[C@@H](CC(N)=O)C(=O)N[C@@H](CC(C)C)C(=O)NCC(=O)N[C@@H](CCCCN)C(=O)N[C@@H](Cc1cnc[nH]1)C(=O)N[C@@H](CC(C)C)C(=O)N[C@@H](CC(N)=O)C(=O)N[C@@H](CO)C(=O)N[C@@H](CCSC)C(=O)N[C@@H](CCC(=O)O)C(=O)N[C@@H](CCCNC(=N)N)C(=O)N[C@H](C(=O)N[C@@H](CCC(=O)O)C(=O)N[C@@H](Cc1c[nH]c2ccccc12)C(=O)N[C@@H](CC(C)C)C(=O)N[C@@H](CCCNC(=N)N[C@@H]1O[C@H](CO)[C@@H](O)[C@H](O)[C@H]1O)C(=O)N[C@@H](CCCCN)C(=O)N[C@@H](CCCCN)C(=O)N[C@@H](CC(C)C)C(=O)N[C@@H](CCC(N)=O)C(=O)N[C@@H](CC(=O)O)C(=O)N[C@H](C(=O)N[C@@H](Cc1cnc[nH]1)C(=O)N[C@@H](CC(N)=O)C(=O)N[C@@H](Cc1ccccc1)C(N)=O)C(C)C)C(C)C`: the Activity entry was “Non-Toxic”.

On to `CC[C@H](C)[C@H](NC(=O)[C@H](CCC(=O)O)NC(=O)[C@H](CO)NC(=O)[C@@H](NC(=O)[C@H](CO)NC(C)=O)C(C)C)C(=O)N[C@@H](CCC(N)=O)C(=O)N[C@@H](CC(C)C)C(=O)N[C@@H](CCSC)C(=O)N[C@@H](Cc1cnc[nH]1)C(=O)N[C@@H](CC(N)=O)C(=O)N[C@@H](CC(C)C)C(=O)NCC(=O)N[C@@H](CCCCN)C(=O)N[C@@H](Cc1cnc[nH]1)C(=O)N[C@@H](CC(C)C)C(=O)N[C@@H](CC(N)=O)C(=O)N[C@@H](CO)C(=O)N[C@@H](CCSC)C(=O)N[C@@H](CCC(=O)O)C(=O)N[C@@H](CCCNC(=N)N)C(=O)N[C@H](C(=O)N[C@@H](CCC(=O)O)C(=O)N[C@@H](Cc1c[nH]c2ccccc12)C(=O)N[C@@H](CC(C)C)C(=O)N[C@@H](CCCNC(=N)N[C@@H]1O[C@@H](C)[C@H](O)[C@@H](O)[C@H]1O)C(=O)N[C@@H](CCCCN)C(=O)N[C@@H](CCCCN)C(=O)N[C@@H](CC(C)C)C(=O)N[C@@H](CCC(N)=O)C(=O)N[C@@H](CC(=O)O)C(=O)N[C@H](C(=O)N[C@@H](Cc1cnc[nH]1)C(=O)N[C@@H](CC(N)=O)C(=O)N[C@@H](Cc1ccccc1)C(N)=O)C(C)C)C(C)C`, for which the Activity result is given as “Non-Toxic”.

On to `CC[C@H](C)[C@H](NC(=O)[C@H](CCC(=O)O)NC(=O)[C@H](CO)NC(=O)[C@@H](NC(=O)[C@H](CO)NC(C)=O)C(C)C)C(=O)N[C@@H](CCC(N)=O)C(=O)N[C@@H](CC(C)C)C(=O)N[C@@H](CCSC)C(=O)N[C@@H](Cc1cnc[nH]1)C(=O)N[C@@H](CC(N)=O)C(=O)N[C@@H](CC(C)C)C(=O)NCC(=O)N[C@@H](CCCCN)C(=O)N[C@@H](Cc1cnc[nH]1)C(=O)N[C@@H](CC(C)C)C(=O)N[C@@H](CC(N)=O)C(=O)N[C@@H](CO)C(=O)N[C@@H](CCSC)C(=O)N[C@@H](CCC(=O)O)C(=O)N[C@@H](CCCNC(=N)N)C(=O)N[C@H](C(=O)N[C@@H](CCC(=O)O)C(=O)N[C@@H](Cc1c[nH]c2ccccc12)C(=O)N[C@@H](CC(C)C)C(=O)N[C@@H](CCCNC(=N)N[C@@H]1OC[C@@H](O)[C@H](O)[C@H]1O)C(=O)N[C@@H](CCCCN)C(=O)N[C@@H](CCCCN)C(=O)N[C@@H](CC(C)C)C(=O)N[C@@H](CCC(N)=O)C(=O)N[C@@H](CC(=O)O)C(=O)N[C@H](C(=O)N[C@@H](Cc1cnc[nH]1)C(=O)N[C@@H](CC(N)=O)C(=O)N[C@@H](Cc1ccccc1)C(N)=O)C(C)C)C(C)C`, for which the Activity entry was “Non-Toxic”.

In the case of `CC[C@H](C)[C@H](NC(=O)[C@H](CCC(=O)O)NC(=O)[C@H](CO)NC(=O)[C@@H](NC(=O)[C@H](CO)NC(C)=O)C(C)C)C(=O)N[C@@H](CCC(N)=O)C(=O)N[C@@H](CC(C)C)C(=O)N[C@@H](CCSC)C(=O)N[C@@H](Cc1cnc[nH]1)C(=O)N[C@@H](CC(N)=O)C(=O)N[C@@H](CC(C)C)C(=O)NCC(=O)N[C@@H](CCCCN)C(=O)N[C@@H](Cc1cnc[nH]1)C(=O)N[C@@H](CC(C)C)C(=O)N[C@@H](CC(N)=O)C(=O)N[C@@H](CO)C(=O)N[C@@H](CCSC)C(=O)N[C@@H](CCC(=O)O)C(=O)N[C@@H](CCCNC(=N)N)C(=O)N[C@H](C(=O)N[C@@H](CCC(=O)O)C(=O)N[C@@H](Cc1c[nH]c2ccccc12)C(=O)N[C@@H](CC(C)C)C(=O)N[C@@H](CCCNC(=N)N[C@@H]1O[C@H](CO)[C@@H](O)[C@H]1O)C(=O)N[C@@H](CCCCN)C(=O)N[C@@H](CCCCN)C(=O)N[C@@H](CC(C)C)C(=O)N[C@@H](CCC(N)=O)C(=O)N[C@@H](CC(=O)O)C(=O)N[C@H](C(=O)N[C@@H](Cc1cnc[nH]1)C(=O)N[C@@H](CC(N)=O)C(=O)N[C@@H](Cc1ccccc1)C(N)=O)C(C)C)C(C)C`, the Activity result is reported as “Non-Toxic”.

Regarding `CC[C@H](C)[C@H](NC(=O)[C@H](CCC(=O)O)NC(=O)[C@H](CO)NC(=O)[C@@H](NC(=O)[C@H](CO)NC(C)=O)C(C)C)C(=O)N[C@@H](CCC(N)=O)C(=O)N[C@@H](CC(C)C)C(=O)N[C@@H](CCSC)C(=O)N[C@@H](Cc1cnc[nH]1)C(=O)N[C@@H](CC(N)=O)C(=O)N[C@@H](CC(C)C)C(=O)NCC(=O)N[C@@H](CCCCN)C(=O)N[C@@H](Cc1cnc[nH]1)C(=O)N[C@@H](CC(C)C)C(=O)N[C@@H](CC(N)=O)C(=O)N[C@@H](CO)C(=O)N[C@@H](CCSC)C(=O)N[C@@H](CCC(=O)O)C(=O)N[C@@H](CCCNC(=N)N)C(=O)N[C@H](C(=O)N[C@@H](CCC(=O)O)C(=O)N[C@@H](Cc1c[nH]c2ccccc12)C(=O)N[C@@H](CC(C)C)C(=O)N[C@@H](CCCNC(=N)N[C@H]1O[C@H](CO)[C@@H](O)[C@H](O)[C@@H]1O)C(=O)N[C@@H](CCCCN)C(=O)N[C@@H](CCCCN)C(=O)N[C@@H](CC(C)C)C(=O)N[C@@H](CCC(N)=O)C(=O)N[C@@H](CC(=O)O)C(=O)N[C@H](C(=O)N[C@@H](Cc1cnc[nH]1)C(=O)N[C@@H](CC(N)=O)C(=O)N[C@@H](Cc1ccccc1)C(N)=O)C(C)C)C(C)C`, the Activity entry is “Non-Toxic”.

Regarding `CC[C@H](C)[C@H](NC(=O)[C@H](CCC(=O)O)NC(=O)[C@H](CO)NC(=O)[C@@H](NC(=O)[C@H](CO)NC(C)=O)C(C)C)C(=O)N[C@@H](CCC(N)=O)C(=O)N[C@@H](CC(C)C)C(=O)N[C@@H](CCSC)C(=O)N[C@@H](Cc1cnc[nH]1)C(=O)N[C@@H](CC(N)=O)C(=O)N[C@@H](CC(C)C)C(=O)NCC(=O)N[C@@H](CCCCN)C(=O)N[C@@H](Cc1cnc[nH]1)C(=O)N[C@@H](CC(C)C)C(=O)N[C@@H](CC(N)=O)C(=O)N[C@@H](CO)C(=O)N[C@@H](CCSC)C(=O)N[C@@H](CCC(=O)O)C(=O)N[C@@H](CCCNC(=N)N[C@@H]1O[C@H](CO)[C@@H](O)[C@H](O)[C@H]1NC(C)=O)C(=O)N[C@H](C(=O)N[C@@H](CCC(=O)O)C(=O)N[C@@H](Cc1c[nH]c2ccccc12)C(=O)N[C@@H](CC(C)C)C(=O)N[C@@H](CCCNC(=N)N[C@@H]1O[C@H](CO)[C@@H](O)[C@H](O)[C@H]1NC(C)=O)C(=O)N[C@@H](CCCCN)C(=O)N[C@@H](CCCCN)C(=O)N[C@@H](CC(C)C)C(=O)N[C@@H](CCC(N)=O)C(=O)N[C@@H](CC(=O)O)C(=O)N[C@H](C(=O)N[C@@H](Cc1cnc[nH]1)C(=O)N[C@@H](CC(N)=O)C(=O)N[C@@H](Cc1ccccc1)C(N)=O)C(C)C)C(C)C` (Ac-SVSEIQLMHNLGKHLNSME[X3]VEWL[X3]KKLQDVHNF-NH2), the Activity result is “Non-Toxic”.

Take `CC[C@H](C)[C@H](NC(=O)[C@H](CCC(=O)O)NC(=O)[C@H](CO)NC(=O)[C@@H](NC(=O)[C@H](CO)NC(C)=O)C(C)C)C(=O)N[C@@H](CCC(N)=O)C(=O)N[C@@H](CC(C)C)C(=O)N[C@@H](CCSC)C(=O)N[C@@H](Cc1cnc[nH]1)C(=O)N[C@@H](CC(N)=O)C(=O)N[C@@H](CC(C)C)C(=O)NCC(=O)N[C@@H](CCCCN)C(=O)N[C@@H](Cc1cnc[nH]1)C(=O)N[C@@H](CC(C)C)C(=O)N[C@@H](CC(N)=O)C(=O)N[C@@H](CO)C(=O)N[C@@H](CCSC)C(=O)N[C@@H](CCC(=O)O)C(=O)N[C@@H](CCCNC(=N)N[C@@H]1OC[C@@H](O)[C@H](O)[C@H]1O)C(=O)N[C@H](C(=O)N[C@@H](CCC(=O)O)C(=O)N[C@@H](Cc1c[nH]c2ccccc12)C(=O)N[C@@H](CC(C)C)C(=O)N[C@@H](CCCNC(=N)N[C@@H]1OC[C@@H](O)[C@H](O)[C@H]1O)C(=O)N[C@@H](CCCCN)C(=O)N[C@@H](CCCCN)C(=O)N[C@@H](CC(C)C)C(=O)N[C@@H](CCC(N)=O)C(=O)N[C@@H](CC(=O)O)C(=O)N[C@H](C(=O)N[C@@H](Cc1cnc[nH]1)C(=O)N[C@@H](CC(N)=O)C(=O)N[C@@H](Cc1ccccc1)C(N)=O)C(C)C)C(C)C` (Ac-SVSEIQLMHNLGKHLNSME[X5]VEWL[X5]KKLQDVHNF-NH2): the Activity entry is listed as “Non-Toxic”.

For the molecule `CC[C@H](C)[C@H](NC(=O)[C@H](CCC(=O)O)NC(=O)[C@H](CO)NC(=O)[C@@H](NC(=O)[C@H](CO)NC(C)=O)C(C)C)C(=O)N[C@@H](CCC(N)=O)C(=O)N[C@@H](CC(C)C)C(=O)N[C@@H](CCSC)C(=O)N[C@@H](Cc1cnc[nH]1)C(=O)N[C@@H](CC(N)=O)C(=O)N[C@@H](CC(C)C)C(=O)NCC(=O)N[C@@H](CCCCN)C(=O)N[C@@H](Cc1cnc[nH]1)C(=O)N[C@@H](CC(C)C)C(=O)N[C@@H](CC(N)=O)C(=O)N[C@@H](CO)C(=O)N[C@@H](CCSC)C(=O)N[C@@H](CCC(=O)O)C(=O)N[C@@H](CCCNC(=N)N[C@@H]1O[C@@H](C)[C@H](O)[C@@H](O)[C@H]1O)C(=O)N[C@H](C(=O)N[C@@H](CCC(=O)O)C(=O)N[C@@H](Cc1c[nH]c2ccccc12)C(=O)N[C@@H](CC(C)C)C(=O)N[C@@H](CCCNC(=N)N[C@@H]1O[C@@H](C)[C@H](O)[C@@H](O)[C@H]1O)C(=O)N[C@@H](CCCCN)C(=O)N[C@@H](CCCCN)C(=O)N[C@@H](CC(C)C)C(=O)N[C@@H](CCC(N)=O)C(=O)N[C@@H](CC(=O)O)C(=O)N[C@H](C(=O)N[C@@H](Cc1cnc[nH]1)C(=O)N[C@@H](CC(N)=O)C(=O)N[C@@H](Cc1ccccc1)C(N)=O)C(C)C)C(C)C` (Ac-SVSEIQLMHNLGKHLNSME[X6]VEWL[X6]KKLQDVHNF-NH2), the Activity entry is on record as “Non-Toxic”.
